The test addresses T1, Human full length PKD2 (Homo sapiens, UniProt Q9BZL6).
T1 construct: Human full length PKD2 at ˜100 μg/mL was purchased from Upstate Ltd; purchased Upstate Ltd 14-506
T1 sequence (Q9BZL6 1-878): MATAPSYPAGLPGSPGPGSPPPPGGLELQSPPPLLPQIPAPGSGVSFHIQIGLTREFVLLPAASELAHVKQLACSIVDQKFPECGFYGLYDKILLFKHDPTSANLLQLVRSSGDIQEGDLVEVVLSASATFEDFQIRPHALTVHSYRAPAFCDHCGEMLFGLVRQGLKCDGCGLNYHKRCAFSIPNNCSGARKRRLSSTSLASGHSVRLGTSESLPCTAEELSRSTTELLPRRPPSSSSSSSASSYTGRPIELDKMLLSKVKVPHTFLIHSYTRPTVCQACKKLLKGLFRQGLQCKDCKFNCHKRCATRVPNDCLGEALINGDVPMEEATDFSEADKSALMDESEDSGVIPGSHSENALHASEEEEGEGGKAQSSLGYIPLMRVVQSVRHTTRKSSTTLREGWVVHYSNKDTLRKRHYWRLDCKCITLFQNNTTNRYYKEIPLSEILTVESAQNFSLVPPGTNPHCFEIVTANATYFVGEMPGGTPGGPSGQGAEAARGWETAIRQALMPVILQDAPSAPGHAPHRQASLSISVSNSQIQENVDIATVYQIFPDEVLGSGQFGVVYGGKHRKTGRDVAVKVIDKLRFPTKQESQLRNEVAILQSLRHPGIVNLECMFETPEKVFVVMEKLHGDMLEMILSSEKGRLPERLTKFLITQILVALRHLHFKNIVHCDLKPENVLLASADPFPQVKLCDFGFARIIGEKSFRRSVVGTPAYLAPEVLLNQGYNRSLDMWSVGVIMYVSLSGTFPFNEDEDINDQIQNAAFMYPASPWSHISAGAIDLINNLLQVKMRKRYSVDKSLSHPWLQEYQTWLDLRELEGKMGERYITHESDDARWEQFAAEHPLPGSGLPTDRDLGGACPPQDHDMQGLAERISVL
The test can be described thus: PKD2 (Human Full Length) Enzyme Activity Assay (IMAP fluorescence polarisation). In kind it is biochemical. As to conditions: 10 point dose-response. As for the experimental part:
PKD2 (Human Full Length) Enzyme Activity Assay
Kinase Assay Reaction Buffer: This consisted of 0.22 μM filtered 25 mM HEPES and 10 mM MgCl2 pH 7.5.
Kinase: Human full length PKD2 at ˜100 μg/mL was purchased from Upstate Ltd (Product code 14-506), and obtained from aliquots stored at −70° C. It was prepared with a final concentration of […] by diluting 1:300 in Reaction Buffer (30 μL per 9 mL-5 mL per plate with an additional 4 mL dead volume) and vortexing prior to use. It is necessary to check this concentration regularly in case of enzyme degradation. […]
5 μL Kinase/Substrate in Reaction Buffer was added to ‘test’ and all ‘control’ wells of a Corning black low binding 384 well (90 μL volume) microplate to give 0.1 μg/mL and 2 μM reaction concentration respectively. […] The fluorescence polarisation of the peptide substrate was measured using an analyst (Molecular devices) microplate reader with a single read at Ex485 Em535 (Analyst settings: Z Height 5 mm, G Factor 0.95, Reads/well 1, Integration 100000 μs, Gain Sensitivity 2).
Percentage inhibition was calculated based on activity of the test sample minus the average values in the blank wells relative to the average values measured in control wells minus the average values in the blank wells.
IC50 values were calculated from 10 point dose sigmoid ‘dose-response’ curves using XIfit software (IDBS inc, USA). […]

Each structure is given as a SMILES string.

The IC50 is the concentration needed to halve the response being measured. `CC[C@@H](N)CN(C)c1ccnc(-c2cc(Cl)ccc2O)n1` [XX-276, 2-{4-[((R)-2-Amino-butyl)-methyl-amino]-pyrimidin-2-yl}-4-chloro-phenol]: half-maximal inhibition (IC50) was put at 4.1 nM.

The values above are taken from patent US20090247519A1, “AMINO-ETHYL-AMINO-ARYL (AEAA) COMPOUNDS AND THEIR USE” (priority 2006, published 2009).
